# Measurements as given in patent US20180084779A1, “PLANT DISEASE CONTROL AGENT AND USE THEREOF” (NIHON NOHYAKU CO., LTD., priority 2015, published 2018).
# How the values were obtained:
# [1] = system: Septoria tritici, KUK-1-21 Strain; assay: Test for wheat leaf blotch, fluoroimide and/or DMI agent sprayed on wheat pots, lesion area index 17 days after inoculation; type: in vivo; settings: for Controlling effect Combination with fluoroimide / Controlling effect DMI alone: 17 days; for Controlling effect DMI alone: fluoroimide 0 ppm
# Protocol: (§1) Test for Wheat Leaf Blotch (Septoria tritici, KUK-1-21 Strain):
# (§2) Agrochemical liquids containing a predetermined concentration of fluoroimide and/or a predetermined concentration of each DMI agent were applied to wheat in a predetermined amount with a spray gun. After air drying, a suspension of fungus spore of Septoria tritici adjusted to 1.0×10^7 spores/ml was inoculated by spraying. After that, the wheat pots were kept in a growth chamber under a light condition of at 15° C. 100% RH to encourage the development of the disease. Seventeen days after the inoculation, the lesion area index (0-10) was determined for the evaluation of the control effect.
# (§3) Control effect (%)=[(Disease index of no treatment area−Disease index of treatment area)/Disease index of no treatment area]×100 [Formula 1]
# (§4) The expected effect (expected value E) by using an active ingredient in combination with each of other active ingredients in the above tests was determined by the following Colby formula (see COLBY, S. R., Weeds 15: 20-22 (1967)).
# (§5) E(Expected effect)=(X+Y)−(X×Y/100) [Formula 2]
# X=controlling effect of fungicide A alone
# Y=controlling effect of fungicide B alone
# [2] = system: Septoria tritici, KUK-1-21 Strain; assay: Test for wheat leaf blotch, fluoroimide and/or SDHI agent sprayed on wheat pots, lesion area index 21 days after inoculation; type: in vivo; settings: for Control effect Combination with fluoroimide / Control effect SDHI alone: 21 days; for Control effect SDHI alone: fluoroimide 0 ppm
# Protocol: as §3, §4, §5, §1
# as §2, with “SDHI” for “DMI”, “Twenty-one” for “Seventeen”, “set and” for “determined for”, “controlling effects and expected values are examined in” for “evaluation of”, “same manner as Example 1.” for “control effect.”
# [3] = DMI agent 1 ppm + fluoroimide 50 ppm
# [4] = DMI agent 1 ppm + fluoroimide 100 ppm
# [5] = DMI agent 3 ppm + fluoroimide 50 ppm
# [6] = DMI agent 3 ppm + fluoroimide 100 ppm
# [7] = DMI agent 10 ppm + fluoroimide 50 ppm
# [8] = DMI agent 10 ppm + fluoroimide 100 ppm
# [9] = SDHI agent 1 ppm + fluoroimide 50 ppm
# [10] = SDHI agent 1 ppm + fluoroimide 100 ppm
# [11] = SDHI agent 3 ppm + fluoroimide 50 ppm
# [12] = SDHI agent 3 ppm + fluoroimide 100 ppm
# [13] = SDHI agent 10 ppm + fluoroimide 50 ppm
# [14] = SDHI agent 10 ppm + fluoroimide 100 ppm
SMILES,"Controlling effect Expected value (Colby) [1, 3]","Controlling effect Combination with fluoroimide [1, 3]","Controlling effect Expected value (Colby) [1, 4]","Controlling effect Combination with fluoroimide [1, 4]",Controlling effect DMI alone ([1]; DMI agent 1 ppm),"Controlling effect Expected value (Colby) [1, 5]","Controlling effect Combination with fluoroimide [1, 5]","Controlling effect Expected value (Colby) [1, 6]","Controlling effect Combination with fluoroimide [1, 6]",Controlling effect DMI alone ([1]; DMI agent 3 ppm),"Controlling effect Expected value (Colby) [1, 7]","Controlling effect Combination with fluoroimide [1, 7]","Controlling effect Expected value (Colby) [1, 8]","Controlling effect Combination with fluoroimide [1, 8]",Controlling effect DMI alone ([1]; DMI agent 10 ppm),"Control effect Expected value (Colby) [2, 9]","Control effect Combination with fluoroimide [2, 9]","Control effect Expected value (Colby) [2, 10]","Control effect Combination with fluoroimide [2, 10]",Control effect SDHI alone ([2]; SDHI agent 1 ppm),other results
Fc1ccc([C@]2(Cn3cncn3)O[C@H]2c2ccccc2Cl)cc1 (racemic) [epoxiconazole],25%,19%,50%,72%,0%,63%,62%,75%,83%,50%,71%,84%,81%,83%,61%,,,,,,
Cn1cc(C(=O)Nc2ccc(F)cc2-c2ccc(Cl)c(Cl)c2)c(C(F)F)n1 [bixafen],,,,,,,,,,,,,,,,76%,95%,81%,85%,75%,"Control effect Expected value (Colby) [2, 11]: 86%; Control effect Combination with fluoroimide [2, 11]: 100%; Control effect Expected value (Colby) [2, 12]: 89%; Control effect Combination with fluoroimide [2, 12]: 90%; Control effect SDHI alone ([2]; SDHI agent 3 ppm): 85%; Control effect Expected value (Colby) [2, 13]: 100%; Control effect Combination with fluoroimide [2, 13]: 100%; Control effect Expected value (Colby) [2, 14]: 100%; Control effect Combination with fluoroimide [2, 14]: 100%; Control effect SDHI alone ([2]; SDHI agent 10 ppm): 100%"
O=C(Nc1ccccc1-c1ccc(Cl)cc1)c1cccnc1Cl [boscalid],,,,,,,,,,,,,,,,10%,15%,29%,0%,5%,"Control effect Expected value (Colby) [2, 11]: 19%; Control effect Combination with fluoroimide [2, 11]: 65%; Control effect Expected value (Colby) [2, 12]: 36%; Control effect Combination with fluoroimide [2, 12]: 80%; Control effect SDHI alone ([2]; SDHI agent 3 ppm): 15%; Control effect Expected value (Colby) [2, 13]: 62%; Control effect Combination with fluoroimide [2, 13]: 100%; Control effect Expected value (Colby) [2, 14]: 70%; Control effect Combination with fluoroimide [2, 14]: 95%; Control effect SDHI alone ([2]; SDHI agent 10 ppm): 60%"
CC1COC(Cn2cncn2)(c2ccc(Oc3ccc(Cl)cc3)cc2Cl)O1 (stereo not drawn) [difenoconazole],25%,52%,50%,94%,0%,71%,89%,81%,89%,61%,71%,89%,81%,100%,61%,,,,,,
Cn1cc(C(=O)Nc2ccccc2-c2cc(F)c(F)c(F)c2)c(C(F)F)n1 [fluxapyroxad],,,,,,,,,,,,,,,,5%,15%,25%,50%,0%,"Control effect Expected value (Colby) [2, 11]: 95%; Control effect Combination with fluoroimide [2, 11]: 90%; Control effect Expected value (Colby) [2, 12]: 96%; Control effect Combination with fluoroimide [2, 12]: 100%; Control effect SDHI alone ([2]; SDHI agent 3 ppm): 95%; Control effect Expected value (Colby) [2, 13]: 100%; Control effect Combination with fluoroimide [2, 13]: 100%; Control effect Expected value (Colby) [2, 14]: 100%; Control effect Combination with fluoroimide [2, 14]: 100%; Control effect SDHI alone ([2]; SDHI agent 10 ppm): 100%"
CC(C)C1C2CCC1c1c(NC(=O)c3cn(C)nc3C(F)F)cccc12 (stereo not drawn) [isopyrazam],,,,,,,,,,,,,,,,19%,60%,36%,20%,15%,"Control effect Expected value (Colby) [2, 11]: 76%; Control effect Combination with fluoroimide [2, 11]: 85%; Control effect Expected value (Colby) [2, 12]: 81%; Control effect Combination with fluoroimide [2, 12]: 85%; Control effect SDHI alone ([2]; SDHI agent 3 ppm): 75%; Control effect Expected value (Colby) [2, 13]: 100%; Control effect Combination with fluoroimide [2, 13]: 100%; Control effect Expected value (Colby) [2, 14]: 100%; Control effect Combination with fluoroimide [2, 14]: 100%; Control effect SDHI alone ([2]; SDHI agent 10 ppm): 100%"
CC1(C)CCC(Cc2ccc(Cl)cc2)C1(O)Cn1cncn1 (stereo not drawn) [metconazole],30%,68%,53%,78%,6%,46%,84%,64%,89%,28%,92%,95%,95%,89%,89%,,,,,,
CCCN(CCOc1c(Cl)cc(Cl)cc1Cl)C(=O)n1ccnc1 [prochloraz],25%,57%,50%,72%,0%,33%,41%,56%,72%,11%,30%,62%,53%,67%,6%,,,,,,
CCCC1COC(Cn2cncn2)(c2ccc(Cl)cc2Cl)O1 (stereo not drawn) [propiconazole],25%,62%,50%,72%,0%,46%,89%,64%,94%,28%,33%,89%,56%,100%,11%,,,,,,
OC(Cc1ccccc1Cl)(Cn1nc[nH]c1=S)C1(Cl)CC1 (stereo not drawn) [prothioconazole],25%,3%,50%,61%,0%,25%,30%,50%,72%,0%,25%,73%,50%,67%,0%,,,,,,
CC(C)(C)C(O)(CCc1ccc(Cl)cc1)Cn1cncn1 (stereo not drawn) [tebuconazole],30%,62%,53%,67%,6%,58%,68%,72%,94%,44%,71%,89%,81%,94%,61%,,,,,,
